# Measured values as given in patent US20260240844A1, “INHIBITORS OF CHD1L AND USES THEREOF” (The Regents of the University of Colorado, a body corporate, priority 2023, published 2026).
# Where two headings read alike, the source gives them in different places.
# Columns and labels:
# SUM149PT tumor organoids = assay: Tumor organoid cytotoxicity (CellTiter Glo 3D), SUM149PT; type: cell-based; conditions: for calculated mean synergy scores: MDA-MB-231 and SUM149PT; for Mean Synergy Score / IC50: SUM149PT; for IC50: Homo sapiens, read-out: IC50 docetaxel
# Experimental: Tumor organoid culture—Cell lines were cultured as tumor organoids by seeding 2,000 to 5,000 cells/well into uncoated 96 well U-bottom Ultra Low Attachment Microplates (Corning) using their corresponding medium.
# Luminescence was recorded using the EnVision plate reader (PerkinElmer) and values normalized to the controls using GraphPad Prism.
# CHD1L = target: T1, CHD1L (Homo sapiens, UniProt Q86WJ1); assay: CHD1L trapping (in situ subcellular fractionation, immunofluorescence); type: cell-based; conditions: single agent; SUM149PT + 0.01% MMS 4 h; BC and CRC cells
# T1 sequence (Q86WJ1 1-897): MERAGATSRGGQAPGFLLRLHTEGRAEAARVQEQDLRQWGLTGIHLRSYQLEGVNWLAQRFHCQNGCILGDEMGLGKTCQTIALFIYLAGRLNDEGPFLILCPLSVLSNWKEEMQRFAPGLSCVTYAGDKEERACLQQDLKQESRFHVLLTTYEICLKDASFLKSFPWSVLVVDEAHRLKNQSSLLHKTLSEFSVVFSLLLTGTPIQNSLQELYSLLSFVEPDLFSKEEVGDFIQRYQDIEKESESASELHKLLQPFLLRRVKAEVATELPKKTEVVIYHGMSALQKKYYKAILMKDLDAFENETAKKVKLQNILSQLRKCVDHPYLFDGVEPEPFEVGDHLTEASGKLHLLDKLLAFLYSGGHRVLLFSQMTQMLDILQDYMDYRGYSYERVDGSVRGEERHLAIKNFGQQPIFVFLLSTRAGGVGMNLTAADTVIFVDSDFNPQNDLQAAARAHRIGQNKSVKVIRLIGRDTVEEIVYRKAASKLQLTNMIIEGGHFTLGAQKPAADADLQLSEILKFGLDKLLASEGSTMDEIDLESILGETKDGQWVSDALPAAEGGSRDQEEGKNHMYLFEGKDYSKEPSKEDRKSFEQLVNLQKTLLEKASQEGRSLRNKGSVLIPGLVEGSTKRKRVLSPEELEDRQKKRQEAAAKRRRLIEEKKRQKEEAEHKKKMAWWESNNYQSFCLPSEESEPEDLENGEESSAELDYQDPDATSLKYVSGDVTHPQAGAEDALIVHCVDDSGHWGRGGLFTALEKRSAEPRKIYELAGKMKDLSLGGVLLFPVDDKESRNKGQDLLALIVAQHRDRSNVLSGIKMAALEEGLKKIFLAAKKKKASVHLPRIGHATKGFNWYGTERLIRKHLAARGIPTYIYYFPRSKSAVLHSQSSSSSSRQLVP
# Excerpt: Other studies on the role of CHD1L used cell lines with knockdown or knockouts of the gene encoding for CHD1L and have never been able to study the result of its enzymatic inhibition.
# PAR in SUM149PT cells = assay: PAR immunofluorescence (nuclear / cytoplasmic PAR); type: cell-based
# Excerpt: Inhibition of CHD1L promotes PAR translocation to the cytoplasm. The main role of PARP1 during the DDR is to detect and signal the recruitment of repair machinery to the sites of DNA damage. For that, PARP1/2 catalyze PARylation, which is a pivotal […] protein modification, consisting of the addition of ADP-ribose units to the carboxyl group of acidic residues such as glutamate or aspartate on target proteins by using NAD^+ as substrate. CHD1L is one of the proteins that requires binding to these PAR chains for its activation and subsequent chromatin remodeling. Using immunofluorescence of PAR, the effect of PARPi and CHD1Li on PARylation in SUM149PT cells was investigated. […] In addition, the effect of doxorubicin on nuclear PARylation was reverted by CHD1L inhibition, causing an increase of PAR in the cytoplasm (FIG. 25A-C).
# AIF in SUM149PT cells = assay: AIF immunofluorescence in SUM149PT (SUM149) cells; type: cell-based
# Excerpt: CHD1Li-mediated PAR translocation to the cytoplasm activates PARthanatos as a cell death mechanism. Parthanatos is a form a programmed cell death different from apoptosis and known to be mediated by PARP1 overactivation. The unique events occurring during parthanatos are: PARP1 rapid activation, accumulation of PAR and nuclear translocation of apoptosis inducing factor (AIF). Without being bound by any particular theory, accumulation of PAR in the cytoplasm caused by CHD1Li can also mediate parthanatos. To better understand the link between PAR translocation to the cytoplasm and cell death, immunofluorescence to measure the activation of caspase-3 and the subcellular localization of AIF after treatment with SOC drugs and Compound 6 in SUM49PT cells was used. […] Without being bound by any particular theory, this might be caused by the mitochondrial outer membrane permeabilization, which triggers release of mitochondrial proteins like AIF or cytochrome c, activating caspase-3 by its cleavage and leading to apoptosis. […] Moreover, when combining CHD1L inhibition with SOC drugs, the cell death mechanism shifts from apoptosis to parthanatos, evidenced by a significant increase in AIF nuclear translocation and decrease in activation of caspase-3 (FIG. 25D-E).
# (§1) The ability of Compounds 12, 15 and 16 to localize AIF was tested in SUM149 (breast cancer) and MDA-MB-231 (TNBC) cell lines. A comparison of the relative distribution of AIF in nuclei (a) versus cytoplasm (b) in SUM149 cells and nuclei (c) versus cytoplasm (d) in MDA-MB-231 cells in the presence of 4 μM Compounds 12, 15 and 16 are shown in FIG. 28. […] Similarly, AIF concentration in the cytoplasm of MDA-MB-231 cells decreased by about 0.5 after administration with Compound 15. After treatment with Compound 16, the relative concentration of AIF in the nuclei of SUM149 cells increased by about 0.5-fold, and the concentration of AIF in the cytoplasm decreased by about 0.4-fold. In MDA-MB-231 cells, the relative concentration of AIF in the cytoplasm decreased by about 0.5-fold, while the concentration of AIF increased in the nuclei by about 0.1-fold.
# MiaPaca2 cells = assay: MiaPaca2 cell viability, combination with chemotherapy; type: cell-based; conditions: MiaPaca2 cells
# Excerpt: The cell viability assays and Bliss synergy analyses are as described above in Examples 1-9 and 11-12.
# HCT116 Parental cells = assay: HCT116 Parental cell viability, combination with chemotherapy; type: cell-based; conditions: HCT116 cells
# SW620 Parental cells = assay: SW620 Parental cell viability, combination with chemotherapy; type: cell-based; conditions: SW620 cells
# [1] = tested on: MDA-MB-231 tumor organoids; assay: Tumor organoid cytotoxicity, MDA-MB-231; type: cell-based; conditions: MDA-MB-231
# Experimental: Tumor organoid culture—Cell lines were cultured as tumor organoids by seeding 2,000 to 5,000 cells/well into uncoated 96 well U-bottom Ultra Low Attachment Microplates (Corning) using their corresponding medium. Cell aggregation was then promoted by centrifugation of the plates for 15 min at 1,000 rpm followed by the addition of Matrigel (Corning) to a 2-5% final concentration. Tumor organoids were maintained under standard cell culture conditions for 72 h prior to drug treatment.
# Organoids were then transferred to a white solid bottom 96 well plate and incubated with an equal volume of CellTiter Glo 3D reagent (Promega) for 45 min on a shaker at 400 rpm. Luminescence was recorded using the EnVision plate reader (PerkinElmer) and values normalized to the controls using GraphPad Prism.
# Colo678 cells = assay: Colo678 cell viability, combination with chemotherapy; type: cell-based; conditions: Colo678 cells
# Colo679 cells = assay: DDR biomarkers (pATM, RAD51, 53BP1, γ-H2AX) in Colo679 cells; type: cell-based; conditions: 4 μM
# Excerpt: (§2) Etoposide was used as a control to show upregulation of DDR pathway biomarkers.
# [2] = tested on: SUM149 and MDA-MB-231 cells; assay: DDR biomarkers in breast cancer cells; type: cell-based; conditions: 4 μM
# Excerpt: as §2
# AIF in MDA-MB-231 cells = assay: AIF localization in MDA-MB-231 cells; type: cell-based; conditions: 4 μM
# Experimental: as §1
# SW948 tumor organoids = assay: cells; conditions: SW948 tumor organoids; combined with Compound 6
# Experimental: ATM is an important protein involved in the initial stages of the DNA damage response. […] ATM mutations are important markers being developed to identify metastatic CRC (mCRC) patients that may be sensitive to DNA damaging chemotherapy.
# Synergy was assessed using the Bliss model.
# [3] = SUM149PT tumor organoids, combined with Compound 6
# [4] = SUM149PT cells, single agent, 18 h
# [5] = Compound 13 combined with Olaparib
# [6] = Compound 13 combined with doxorubicin
molecule,measurement,setting,value
CCc1cc2ncc(CN3CCN(c4ccc(C(=O)NC)nc4)CC3)cc2[nH]c1=O [AZD5305],improvement of IC50 potency,SUM149PT tumor organoids; [3],2.7 fold
same,CHD1L trapping onto chromatin/nucleosomes,CHD1L,did not show CHD1L trapping
same,nuclear PAR (PARylation),"PAR in SUM149PT cells; SUM149PT cells, single agent, 4 h",inhibition of nuclear PARylation
same,cytoplasmic AIF,AIF in SUM149PT cells; [4],increase in the AIF intensity in the cytoplasm
same,nuclear AIF,AIF in SUM149PT cells; [4],no translocation of this protein to the nucleus
"Cc1cc(Nc2ccc(NC(=O)Cc3c[nH]c4cc(Cl)ccc34)cc2)nc(N2CCCC2)n1 [Compound 7, 2-(6-chloro-1H-indol-3-yl)-N-(4-((6-methyl-2-(pyrrolidin-1-yl)pyrimidin-4-yl)amino)phenyl)acetamide]",calculated mean synergy score,MiaPaca2 cells; combined with 5-FU,about 25
same,calculated mean synergy score,MiaPaca2 cells; combined with SN-38,about 24.5
"Cc1cc(Nc2ccc(NC(=O)Cc3cc(Cl)nc4ccccc34)cc2)nc(N2CCCC2)n1 [Compound 8, 2-(2-chloroquinolin-4-yl)-N-(4-((6-methyl-2-(pyrrolidin-1-yl)pyrimidin-4-yl)amino)phenyl)acetamide]",calculated mean synergy score,MiaPaca2 cells; combined with 5-FU,about 29.5
same,calculated mean synergy score,MiaPaca2 cells; combined with SN-38,about 26
"Cc1cc(Nc2ccc(NC(=O)/C=C/c3cc(Br)cs3)cc2)nc(N2CCCC2)n1 [Compound 11, (E)-3-(4-bromothiophen-2-yl)-N-(4-((6-methyl-2-(pyrrolidin-1-yl)pyrimidin-4-yl)amino)phenyl)acrylamide]",calculated mean synergy score,"HCT116 Parental cells; 72 h, combined with SN-38",about 14
same,calculated mean synergy score,HCT116 Parental cells; combined with 5-FU,about 8
same,calculated mean synergy score,"SW620 Parental cells; 72 h, combined with SN-38",about 24
same,calculated mean synergy score,SW620 Parental cells; combined with 5-FU,about 43
"Cc1cc(Nc2ccc(NC(=O)c3cc(Br)cs3)cc2)nc(N2CCCC2)n1 [Compound 13, 4-bromo-N-(4-((6-methyl-2-(pyrrolidin-1-yl)pyrimidin-4-yl)amino)phenyl)thiophene-2-carboxamide]",calculated mean synergy scores,SUM149PT tumor organoids; all combinations with 5-FU or doxorubicin,at least 20
same,calculated mean synergy scores,SUM149PT tumor organoids; all combinations with Olaparib,at least 40
same,Mean Synergy Score,SUM149PT tumor organoids; Compound 13 combined with 5-FU,23.62
same,Mean Synergy Score,SUM149PT tumor organoids; [5],69.46
same,Mean Synergy Score,SUM149PT tumor organoids; [6],42.74
same,Mean Synergy Score,[1]; Compound 13 combined with 5-FU,23.62
same,Mean Synergy Score,[1]; [5],40.44
same,Mean Synergy Score,[1]; [6],23.62
same,calculated mean synergy score,"Colo678 cells; 72 h, combined with SN-38",about 41
same,calculated mean synergy score,Colo678 cells; combined with 5-FU,about 12
same,calculated mean synergy score,MiaPaca2 cells; combined with 5-FU,about 57
same,calculated mean synergy score,MiaPaca2 cells; combined with SN-38,about 18
"Cc1cc(Nc2ccc(NC(=O)c3cnc(Br)s3)cc2)nc(N2CCCC2)n1 [Compound 14, 2-bromo-N-(4-((6-methyl-2-(pyrrolidin-1-yl)pyrimidin-4-yl)amino)phenyl)thiazole-5-carboxamide]",calculated mean synergy score,"Colo678 cells; 72 h, combined with SN-38",about 57
same,calculated mean synergy score,Colo678 cells; combined with 5-FU,about 26
same,amount of 53BP1,Colo679 cells,decrease the amount of 53BP1
same,amount of pATM,Colo679 cells,increased the amount of pATM
same,γ-H2AX concentrations,Colo679 cells,decreased
same,amounts of γ-H2AX and 53BP1,[2],overall decreases in the amounts of γ-H2AX and 53BP1
"Cc1cc(Nc2ccc(NC(=O)Cc3ccc(Br)s3)cc2)nc(N2CCCC2)n1 [Compound 15, 2-(5-bromothiophen-2-yl)-N-(4-((6-methyl-2-(pyrrolidin-1-yl)pyrimidin-4-yl)amino)phenyl)acetamide]",decrease in AIF in the cytoplasm,"AIF in SUM149PT cells; SUM149 cells, 4 μM",about 0.5 fold
same,increase in AIF in the nucleus,"AIF in SUM149PT cells; SUM149 cells, 4 μM",about 0.5 fold
same,decrease in AIF in the cytoplasm,AIF in MDA-MB-231 cells,about 0.5 fold
CC(=O)O[C@@]12CO[C@@H]1C[C@H](O)[C@@]1(C)C(=O)[C@H](O)C3=C(C)[C@@H](OC(=O)[C@H](O)[C@@H](NC(=O)OC(C)(C)C)c4ccccc4)C[C@@](O)([C@@H](OC(=O)c4ccccc4)[C@H]21)C3(C)C [docetaxel],IC50,SUM149PT tumor organoids; [3],0.5 µM
same,IC50,"SUM149PT tumor organoids; SUM149PT tumor organoids, docetaxel alone",55 µM
same,increase in potency of the chemotherapy,"SUM149PT tumor organoids; SUM149PT BRCA1 mutant tumor organoids, + 1.9 μM Compound 6",110 fold
O=C(O)C(=O)O.[NH-][C@@H]1CCCC[C@H]1[NH-].[Pt+2] [oxaliplatin],increase in potency of the chemotherapy,SW948 tumor organoids,20 fold
PDD00017273,nuclear PAR under CHD1L inhibition,PAR in SUM149PT cells; cells pre-treated 2 hours with 1 μM PARG inhibitor before CHD1Li,kept the levels of nuclear PAR similar to control cells
